# Patent US12441733B2, “Substituted 2,4-dioxotetrahydropyrimidines as intermediates in the synthesis of bruton's tyrosine kinase inhibitors” (Novartis AG, priority 2018, dated 2025)
# Target: T1, IKZF3-GFP (Homo sapiens, UniProt Q96SW2+Q9UKT9)
# T1 construct: expressed in transfected cells; host or cells: HEK293A (Invitrogen R70507), lentiviral transduction with pLenti6-IKZF3-GFP-Ires-RFP, blasticidin selection
# Experiment: IKZF3-GFP protein abundance flow cytometry assay in HEK293A cells
# Type: cell-based
# Settings: HEK293A IKZF3-GFP-iresRFP cells, 24 h; for DC50: GFP signal by flow cytometry; for IKZF3 deg Amax: % protein remaining at maximum degradation
# Procedure: BTK-GFP and IKZF3-GFP protein abundance flow cytometry assay in HEK293A cells:
# Degradation of BTK or IKZF3 was measured in HEK293A cells (Invitrogen R70507) expressing either BTK-GFP and RFP or IKZF3-GFP and RFP from a stably integrated bicistronic BTK-GFP-iresRFP or IKZF3-GFP-iresRFP construct, respectively. Reduction of the GFP signal measured by flow cytometry served as readout for BTK or IKZF3 degradation after degrader treatment.
# By analogy the bicistronic pLenti6-IKZF3-GFP-iresRFP was engineered by gateway cloning of IKZF3 from a pENTR221-IKZF3(STOP-Leu) construct into the previously described pLenti6-DEST-GFP-Ires-RFP vector using the LR Clonase kit (Invitrogen 11791-019) according to the manufacturer's manual. All vectors described have been sequenced for verification.
# ii) Engineering of Stably Expressing 293A BTK-GFP-Ires-RFP and IKZF3-GFP-Ires-RFP Sensor Cells
# 293A BTK-GFP-Ires-RFP and IKZF3-GFP-ires-RFP sensor cells were generated by lentiviral vector transduction using the pLenti6-BTK-GFP-Ires-RFP or pLenti6-IKZF3-GFP-Ires-RFP sensor construct described before. Lentiviral particles were produced in HEK293FT cells (Invitrogen R70007) by co-transfection of 500 ng pLenti6-BTK-GFP-ires-RFP or pLenti6-IKZF3-GFP-Ires-RFP, 500 ng delta8.71 and 200 ng pVSVG diluted in 100 μl OptiMEM serum free medium (Invitrogen #11058-021) that was mixed after 5 min preincubation with 3 μl of Lipofectamine2000 (Invitrogen #11668-019) in 97 μl OptiMEM serum free medium. The mix was incubated for another 20 min at RT and then added on 1 ml of a freshly prepared suspension of HEK293FT cells in a well of a 6-well plate (concentration 1.2×10^6 cells/ml). 1 day after transfection, the medium was replaced with 1.5 ml of complete growth medium (DMEM high Glucose+10% FCS+1% L-Glutamine+1% NEAA+1% NaPyr.). 48 h post transfection supernatant containing viral transducing particles was collected and frozen at −80° C.
# Two days before transduction with viral particles 1×10^5 HEK293A cells (Invitrogen R70507) were seeded in 2 ml growth medium in a well of a 6-well plate. Infection was performed with 90 μl of collected supernatant containing viral transducing particles in 1 ml medium including 8 μg/ml polybrene. 24 h post infection, stably transfected cells were selected with blasticidin at a concentration of 8 μg/ml.
# Iii) Quantitative BTK-GFP and IKZF3-GFP Abundance Measurements
# Stable HEK293A-BTK-GFP-iresRFP cells were maintained in complete growth medium (DMEM high Glucose+10% FCS+1% L-Glutamine+1% NEAA+1% NaPyr.) with passaging performed twice per week. On Day 0, HEK293A-BTK-GFP-iresRFP or HEK293A-IKZF3-GFP-iresRFP and HEK293A-iresRFP cells were seeded at 10,000 cells/well in a 96-well microtiter plate in 260 μl complete medium. On Day 1, cells were treated in duplicate with 10-point 1:3 dilution series of compound using the HP D300 Digital Dispenser (Tecan). DMSO concentrations were normalized across the plate to 0.1%. On Day 2, after 24 h of incubation at 37° C., treatment media was discarded, cells rinsed with 100 μl/well PBS and then detached using 40 μl trypsin/well for 5 min. Trypsin was neutralized with 100 μl/well PBS+20% FCS). Flow cytometry was performed on the samples using the BD FACS CANTO II (Becton Dickinson). Cell identification was then performed using forward (FSC) vs. side scatter (SSC) plots. […] Median GFP values for 5,000 single cells are used to determine BTK levels. Median GFP values from HEK293A-iresRFP are used as a background signal and thus defining 0% BTK signal. Median GFP values from DMSO treated HEK293A-BTK-GFP-iresRFP or HEK293A-IKZF3-GFP-iresRFP are used to define 100% BTK signal for subsequent DC50 curves (concentration at 50% BTK degradation).
# T1 sequence (Q9UKT9 whole entry): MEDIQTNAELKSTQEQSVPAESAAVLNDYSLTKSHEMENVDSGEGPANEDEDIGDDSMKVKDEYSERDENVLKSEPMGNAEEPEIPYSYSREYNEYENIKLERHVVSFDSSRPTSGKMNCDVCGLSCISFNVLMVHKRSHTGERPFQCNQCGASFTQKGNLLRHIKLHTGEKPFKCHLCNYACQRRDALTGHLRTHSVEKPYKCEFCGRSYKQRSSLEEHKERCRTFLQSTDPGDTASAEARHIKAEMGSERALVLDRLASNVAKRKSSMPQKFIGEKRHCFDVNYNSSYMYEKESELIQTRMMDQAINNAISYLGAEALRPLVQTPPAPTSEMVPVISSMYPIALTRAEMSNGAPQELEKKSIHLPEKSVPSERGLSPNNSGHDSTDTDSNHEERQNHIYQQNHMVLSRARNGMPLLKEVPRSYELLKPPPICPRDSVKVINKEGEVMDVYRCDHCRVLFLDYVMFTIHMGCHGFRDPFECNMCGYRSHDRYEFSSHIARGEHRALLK
# T1 sequence (Q96SW2 whole entry): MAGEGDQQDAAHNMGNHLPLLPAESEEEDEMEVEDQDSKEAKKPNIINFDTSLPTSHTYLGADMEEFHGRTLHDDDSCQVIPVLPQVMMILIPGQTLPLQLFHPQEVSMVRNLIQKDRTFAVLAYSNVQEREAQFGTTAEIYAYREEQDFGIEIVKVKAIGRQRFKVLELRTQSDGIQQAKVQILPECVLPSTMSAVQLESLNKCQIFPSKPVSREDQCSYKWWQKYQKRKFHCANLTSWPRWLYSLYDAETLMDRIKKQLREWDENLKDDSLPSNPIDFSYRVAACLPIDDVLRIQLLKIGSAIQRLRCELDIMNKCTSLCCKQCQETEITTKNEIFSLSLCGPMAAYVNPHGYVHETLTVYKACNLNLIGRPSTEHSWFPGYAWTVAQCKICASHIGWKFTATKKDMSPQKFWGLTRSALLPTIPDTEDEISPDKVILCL
# T1 sequence (Q16531 whole entry partner): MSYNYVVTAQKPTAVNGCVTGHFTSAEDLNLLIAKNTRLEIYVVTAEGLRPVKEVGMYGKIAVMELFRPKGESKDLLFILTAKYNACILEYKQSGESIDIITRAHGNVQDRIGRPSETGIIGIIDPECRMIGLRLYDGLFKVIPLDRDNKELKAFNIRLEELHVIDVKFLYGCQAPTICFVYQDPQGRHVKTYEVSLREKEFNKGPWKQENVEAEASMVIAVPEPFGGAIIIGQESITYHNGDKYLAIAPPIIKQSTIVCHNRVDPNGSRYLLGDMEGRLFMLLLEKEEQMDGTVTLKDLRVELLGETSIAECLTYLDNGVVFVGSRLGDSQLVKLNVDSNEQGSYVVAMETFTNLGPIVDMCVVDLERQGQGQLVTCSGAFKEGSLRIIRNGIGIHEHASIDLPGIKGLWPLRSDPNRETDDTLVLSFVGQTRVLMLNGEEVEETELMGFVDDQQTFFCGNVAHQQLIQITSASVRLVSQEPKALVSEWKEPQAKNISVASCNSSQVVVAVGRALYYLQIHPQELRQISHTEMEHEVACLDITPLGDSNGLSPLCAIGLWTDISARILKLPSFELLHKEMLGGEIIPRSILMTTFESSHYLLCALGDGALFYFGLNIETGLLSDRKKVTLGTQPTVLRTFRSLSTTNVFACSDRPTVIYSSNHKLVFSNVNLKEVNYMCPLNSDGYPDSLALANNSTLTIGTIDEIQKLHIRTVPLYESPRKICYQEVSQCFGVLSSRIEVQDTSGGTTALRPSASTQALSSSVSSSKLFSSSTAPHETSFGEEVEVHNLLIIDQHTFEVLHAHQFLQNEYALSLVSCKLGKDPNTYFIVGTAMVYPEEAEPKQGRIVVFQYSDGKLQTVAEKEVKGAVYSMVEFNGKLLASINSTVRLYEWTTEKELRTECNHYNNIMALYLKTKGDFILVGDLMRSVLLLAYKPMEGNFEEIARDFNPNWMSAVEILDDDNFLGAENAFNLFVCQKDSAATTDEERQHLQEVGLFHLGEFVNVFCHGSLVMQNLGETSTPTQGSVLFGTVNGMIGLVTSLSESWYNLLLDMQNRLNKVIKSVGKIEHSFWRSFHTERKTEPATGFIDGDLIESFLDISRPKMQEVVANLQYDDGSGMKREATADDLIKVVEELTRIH
SMILES,DC50,IKZF3 deg Amax
"COc1ccc(C(=O)N2CCC3(CCN(Cc4ccc(-c5cc6c(-c7cc(F)cc(NC(=O)c8ccc(C(C)(C)O)cc8F)c7C)ncnc6[nH]5)cc4)CC3)CC2)cc1N1CCC(=O)NC1=O [Compound 9, N-(3-(6-(4-((9-(3-(2,4-Dioxotetrahydropyrimidin-1(2H)-yl)-4-methoxybenzoyl)-3,9-diazaspiro[5.5]undecan-3-yl)methyl)phenyl)-7H-pyrrolo[2.3-d]pyrimidin-4-yl)-5-fluoro-2-methylphenyl)-2-fluoro-4-(2-hydroxypropan-2-yl)benzamide]",> 7.8 µM,99.1%
"Cc1ccc(C(=O)N(C)CCCCCNCc2ccc(-c3cc4c(-c5cc(F)cc(NC(=O)c6ccc(C(C)(C)O)cc6F)c5C)ncnc4[nH]3)cc2)cc1N1CCC(=O)NC1=O [Compound 30, 3-(2,4-Dioxotetrahydropyrimidin-1(2H)-yl)-N-(5-((4-(4-(5-fluoro-3-(2-fluoro-4-(2-hydroxypropan-2-yl)benzamido)-2-methylphenyl)-7H-pyrrolo[2,3-d]pyrimidin-6-yl)benzyl)amino)pentyl)-N,4-dimethylbenzamide]",> 3.3 µM,101.1%
"Cc1cc(F)c(C(=O)NCCCCCNCc2ccc(-c3cc4c(-c5cc(F)cc(NC(=O)c6ccc(C(C)(C)O)cc6F)c5C)ncnc4[nH]3)cc2)cc1N1CCC(=O)NC1=O [Compound 29, 5-(2,4-Dioxotetrahydropyrimidin-1(2H)-yl)-2-fluoro-N—(S-((4-(4-(5-fluoro-3-(2-fluoro-4-(2-hydroxypropan-2-yl)benzamido)-2-methylphenyl)-7H-pyrrolo[2,3-d]pyrimidin-6-yl)benzyl)amino)pentyl)-4-methylbenzamide]",> 3.3 µM,98.6%
"COc1ccc(C(=O)N2CCC(OC3CCN(CCc4ccc(-c5cc6c(-c7cc(F)cc(NC(=O)c8ccc(C(C)(C)O)cc8F)c7C)ncnc6[nH]5)cc4)CC3)CC2)cc1N1CCC(=O)NC1=O [Compound 34, N-(3-(6-(4-(2-(4-((1-(3-(2,4-Dioxotetrahydropyrimidin-1(2H)-yl)-4-methoxybenzoyl)piperidin-4-yl)oxyl)piperidin-1-yl)ethyl)phenyl)-7H-pyrrolo[2,3-d]pyrimidin-4-yl)-5-fluoro-2-methylphenyl)-2-fluoro-4-(2-hydroxypropan-2-yl)benzamide]",> 10 µM,94.7%
"COc1ccc(C(=O)NCCN2CCC3(CC2)CCN(Cc2ccc(-c4cc5c(-c6cc(F)cc(NC(=O)c7ccc(C(C)(C)O)cc7F)c6C)ncnc5[nH]4)cc2)CC3)cc1N1CCC(=O)NC1=O [Compound 44, N-(3-(6-(4-((9-(2-(3-(2,4-dioxotetrahydropyrimidin-1(2H)-yl)-4-methoxybenzamido)ethyl)-3,9-diazaspiro[5.5]undecan-3-yl)methyl)phenyl)-7H-pyrrolo[2,3-d]pyrimidin-4-yl)-5-fluoro-2-methylphenyl)-2-fluoro-4-(2-hydroxypropan-2-yl)benzamide]",> 3.3 µM,99.7%
"Cc1c(NC(=O)c2ccc(C(C)(C)O)cc2F)cc(F)cc1-c1ncnc2[nH]c(-c3ccc(COC4CCN(CCC5CCN(C(=O)c6ccc(F)c(N7CCC(=O)NC7=O)c6)CC5)CC4)cc3)cc12 [Compound 6, N-(3-(6-(4-(((1-(2(1-(3-(2,4-dioxotetrahydropyrimidin-1(2H)-yl)-4-fluorobenzoyl)piperidin-4-yl)ethyl)piperidin-4-yl)oxyl)methyl)phenyl)-7H-pyrrolo[2,3-d]pyrimidin-4-yl)-5-fluoro-2-methylphenyl)-2-fluoro-4-(2-hydroxypropan-2-yl)benzamide]",> 10 µM,100.8%
"COc1ccc(C(=O)N2CCC(OC3CCN(Cc4ccc(-c5cc6c(-c7cc(F)cc(NC(=O)c8ccc(C(C)(C)O)cc8F)c7C)ncnc6[nH]5)cc4)CC3)CC2)cc1N1CCC(=O)NC1=O [Compound 8, N-(3-(6-(4-((4-((1-(3-(2,4-dioxotetrahydropyrimidin-1(2H)-yl)-4-methoxybenzoyl)piperidin-4-yl)oxyl)piperidin-1-yl)methyl)phenyl)-7H-pyrrolo[2,3-d]pyrimidin-4-yl)-5-fluoro-2-methylphenyl)-2-fluoro-4-(2-hydroxypropan-2-yl)benzamide]",> 2.6 µM,103.3%

# The next lines start with the values.
DC50,IKZF3 deg Amax,SMILES
> 1.1 µM,100.4%,"Cc1c(NC(=O)c2ccc(C(C)(C)O)cc2F)cc(F)cc1-c1ncnc2[nH]c(-c3ccc(CCN4CCC5(CC4)CCN(C(=O)c4cccc(N6CCC(=O)NC6=O)c4)CC5)cc3)cc12 [Compound 12, N-(3-(6-(4-(2-(9-(3-(2,4-Dioxotetrahydropyrimidin-1(2H)-yl)benzoyl)-3,9-diazaspiro[5,5]undecan-3-yl)ethyl)phenyl)-7H-pyrrolo[2,3-d]pyrimidin-4-yl)-5-fluoro-2-methylphenyl)-2-fluoro-4-(2-hydroxypropan-2-yl)benzamide]"
> 1.1 µM,101.3%,"CCOc1ccc(C(=O)N2CCC3(CCN(Cc4ccc(-c5cc6c(-c7cc(F)cc(NC(=O)c8ccc(C(C)(C)O)cc8F)c7C)ncnc6[nH]5)cc4)CC3)CC2)cc1N1CCC(=O)NC1=O [Compound 4, N-(3-(6-(4-((9-(3-(2,4-Dioxotetrahydropyrimidin-1(2H)-yl)-4-ethoxybenzoyl)-3,9-diazaspiro[5.5]undecan-3-yl)methyl)phenyl)-7H-pyrrolo[2,3-d]pyrimidin-4-yl)-5-fluoro-2-methylphenyl)-2-fluoro-4-(2-hydroxypropan-2-yl)benzamide]"
> 1.1 µM,102.2%,"Cc1ccc(C(=O)N2CCC3(CCN(Cc4ccc(-c5cc6c(-c7cc(F)cc(NC(=O)c8ccc(C(C)(C)O)cc8F)c7C)ncnc6[nH]5)cc4)CC3)CC2)cc1N1CCC(=O)NC1=O [Compound 27, N-(3-(6-(4-((9-(3-(2,4-Dioxotetrahydropyrimidin-1(2H)-yl)-4-methylbenzoyl)-3,9-diazaspiro[5.5]undecan-3-yl)methyl)phenyl)-7H-pyrrolo[2,3-d]pyrimidin-4-yl)-5-fluoro-2-methylphenyl)-2-fluoro-4-(2-hydroxypropan-2-yl)benzamide]"
> 0.37 µM,103.3%,"Cc1ccc(C(=O)N2CCC3(CCN(CCc4ccc(-c5cc6c(-c7cc(F)cc(NC(=O)c8ccc(C(C)(C)O)cc8F)c7C)ncnc6[nH]5)cc4)CC3)CC2)cc1N1CCC(=O)NC1=O [Compound 5, N-(3-(6-(4-(2-(9-(3-(2,4-Dioxotetrahydropyrimidin-1(2H)-yl)-4-methylbenzoyl)-3,9-diazaspiro[5.5]undecan-3-yl)ethyl)phenyl)-7H-pyrrolo[2,3-d]pyrimidin-4-yl)-5-fluoro-2-methylphenyl)-2-fluoro-4-(2-hydroxypropan-2-yl)benzamide]"
> 1.1 µM,93.3%,"COc1ccc(C(=O)N2CCC3(CC2)CCN(C(C)(C)Cc2ccc(-c4cc5c(-c6cc(F)cc(NC(=O)c7ccc(C(C)(C)O)cc7F)c6C)ncnc5[nH]4)cc2)CC3)cc1N1CCC(=O)NC1=O [Compound 20, N-(3-(6-(4-(2-(9-(3-(2,4-Dioxotetrahydropyrimidin-1(2H)-yl)-4-methoxybenzoyl)-3,9-diazaspiro[5.5]undecan-3-yl)-2-methylpropyl)phenyl)-7H-pyrrolo[2,3-d]pyrimidin-4-yl)-5-fluoro-2-methylphenyl)-2-fluoro-4-(2-hydroxypropan-2-yl)benzamide]"
